Reference: ChEMBL document CHEMBL1138776, “Identification and characterization of small molecule inhibitors of the calcium-dependent S100B-p53 tumor suppressor interaction” (J Med Chem, 2004)

Legend:
[1] = Concentration required for 50% growth inhibition of primary malignant melanoma C8146A cell lines; assay type: functional, cell-based
Protein S100-B = biological target: T1, Protein S100-B (Homo sapiens, UniProt P04271); experiment: Binding to holo-S100B protein
T1 sequence (P04271 whole entry): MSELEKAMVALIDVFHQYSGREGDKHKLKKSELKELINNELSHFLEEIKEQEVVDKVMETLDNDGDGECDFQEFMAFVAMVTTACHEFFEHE

SMILES | Kd (Protein S100-B) [µM] | IC50 [1] [µM]
N=C(N)NC(=N)Nc1cccc(Cl)c1Cl | 2 | 8
N=C(N)NC(=N)Nc1ccc(Cl)cc1C(=O)c1ccccc1 | 4.5 | 12
N=C(N)c1ccc(OCCCCCOc2ccc(C(=N)N)cc2)cc1 [PENTAMIDINE] | 1 | 1.2

Second part, led by results:

Kd (Protein S100-B) [µM] | SMILES | IC50 [1] [µM]
120 | Cc1cc(C)c(N2C(=O)c3ccc(C(=O)Nc4cc(C(=O)O)cc(C(=O)O)c4)cc3C2=O)c(C)c1 | 44
8.1 | CC(C)(C)NC(=O)c1cccc(N2C(=O)c3ccc(C(=O)O)cc3C2=O)c1 | > 100
18.3 | O=C(O)c1cc(N/N=C/c2ccc(-c3ccc(Cl)c(C(=O)O)c3)o2)ccc1Cl | 49
4.5 | Cc1c(NS(=O)(=O)c2ccc(NC(=O)CCC(=O)O)cc2)c(=O)n(-c2ccccc2)n1C | > 100
